Measured values taken from ChEMBL document CHEMBL4152386, “Discovery of a Novel Inhaled PI3Kδ Inhibitor for the Treatment of Respiratory Diseases” (J Med Chem, 2018).

Legend:
[1] = molecular target: PI3-kinase p110-alpha/p85-alpha (Homo sapiens, UniProt P42336)
Description: Inhibition of recombinant human N-terminal His6-tagged full length p110alpha/recombinant human full length p85alpha using PIP2 as substrate preincubated for 30 mins followed by substrate addition by HTRF assay

[2] = molecular target: Phosphatidylinositol 4,5-bisphosphate 3-kinase catalytic subunit gamma isoform (Homo sapiens, UniProt P48736); assay: Inhibition of recombinant human N-terminal His6-tagged full length p110gamma using PIP2 as substrate preincubated for 30 mins followed by substrate addition by HTRF assay
PI3K p110 beta/p85 alpha = PI3K p110 beta/p85 alpha (Homo sapiens, UniProt P42338)
Description: Inhibition of recombinant human N-terminal His6-tagged full length p110beta/recombinant human full length p85alpha using PIP2 as substrate preincubated for 30 mins followed by substrate addition and HTRF assay

[3] = molecular target: PI3-kinase p110-delta/p85-alpha (Homo sapiens, UniProt O00329)
Description: Inhibition of recombinant human N-terminal His-tagged full length p110delta/recombinant human full length p85alpha using PIP2 as substrate preincubated for 30 mins followed by substrate addition by HTRF assay

[4] = Drug metabolism in rat liver microsomes assessed as disappearance of parent compound at 5 uM after 30 mins in presence of NADPH by UPLC-MS/MS analysis; format: ADME, microsome; details: read-out: Drug metabolism
[5] = Drug metabolism in human liver microsomes assessed as disappearance of parent compound at 5 uM after 30 mins in presence of NADPH by UPLC-MS/MS analysis; format: ADME, microsome; details: read-out: Drug metabolism
[6] = Drug metabolism in human liver microsomes assessed as disappearance of parent compound at 5 uM preincubated for 3 mins followed UDPG addition and measured after 120 mins by UPLC-MS/MS analysis; format: ADME, microsome; details: read-out: Drug metabolism
[7] = Drug metabolism in rat liver microsomes assessed as disappearance of parent compound at 5 uM preincubated for 3 mins followed UDPG addition and measured after 120 mins by UPLC-MS/MS analysis; format: ADME, microsome; details: read-out: Drug metabolism
Rattus norvegicus [8] = assay: (§1) Anti-inflammatory activity in Brown Norway rat model of ovalbumin-induced inflammation assessed inhibition of neutrophil infiltration in bronchoalveolar lavage at 0.3 mg/kg, it administered 1 hr before ovalbumin aerosol challenge and measured 24 hrs post challenge by hematology analysis relative to control; format: functional; details: inhaled or nasal
Rattus norvegicus [9] = assay: as §1, with “eosinophil” for “neutrophil”; format: functional; details: inhaled or nasal

Sequence of PI3-kinase p110-delta/p85-alpha (P27986 whole entry): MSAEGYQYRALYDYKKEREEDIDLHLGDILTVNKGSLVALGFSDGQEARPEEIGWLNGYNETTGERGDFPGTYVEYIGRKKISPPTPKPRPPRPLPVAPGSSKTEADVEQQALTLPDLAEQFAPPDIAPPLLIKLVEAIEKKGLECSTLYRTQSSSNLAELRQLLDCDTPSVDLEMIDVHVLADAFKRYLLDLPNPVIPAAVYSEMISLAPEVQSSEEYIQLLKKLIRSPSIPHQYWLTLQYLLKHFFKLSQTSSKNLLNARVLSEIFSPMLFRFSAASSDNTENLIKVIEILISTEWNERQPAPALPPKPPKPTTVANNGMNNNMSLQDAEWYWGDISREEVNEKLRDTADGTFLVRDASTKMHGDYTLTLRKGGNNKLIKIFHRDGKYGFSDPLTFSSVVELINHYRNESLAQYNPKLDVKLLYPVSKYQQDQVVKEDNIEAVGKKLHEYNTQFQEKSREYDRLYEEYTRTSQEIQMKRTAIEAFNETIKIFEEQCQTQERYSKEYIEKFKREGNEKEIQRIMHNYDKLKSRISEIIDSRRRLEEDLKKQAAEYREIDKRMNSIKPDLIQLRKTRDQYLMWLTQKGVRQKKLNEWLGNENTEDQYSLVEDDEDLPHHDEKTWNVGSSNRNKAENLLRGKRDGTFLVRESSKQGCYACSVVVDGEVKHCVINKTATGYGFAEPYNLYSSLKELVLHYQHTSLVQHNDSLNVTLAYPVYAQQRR
Sequence of PI3-kinase p110-delta/p85-alpha (O00329 whole entry): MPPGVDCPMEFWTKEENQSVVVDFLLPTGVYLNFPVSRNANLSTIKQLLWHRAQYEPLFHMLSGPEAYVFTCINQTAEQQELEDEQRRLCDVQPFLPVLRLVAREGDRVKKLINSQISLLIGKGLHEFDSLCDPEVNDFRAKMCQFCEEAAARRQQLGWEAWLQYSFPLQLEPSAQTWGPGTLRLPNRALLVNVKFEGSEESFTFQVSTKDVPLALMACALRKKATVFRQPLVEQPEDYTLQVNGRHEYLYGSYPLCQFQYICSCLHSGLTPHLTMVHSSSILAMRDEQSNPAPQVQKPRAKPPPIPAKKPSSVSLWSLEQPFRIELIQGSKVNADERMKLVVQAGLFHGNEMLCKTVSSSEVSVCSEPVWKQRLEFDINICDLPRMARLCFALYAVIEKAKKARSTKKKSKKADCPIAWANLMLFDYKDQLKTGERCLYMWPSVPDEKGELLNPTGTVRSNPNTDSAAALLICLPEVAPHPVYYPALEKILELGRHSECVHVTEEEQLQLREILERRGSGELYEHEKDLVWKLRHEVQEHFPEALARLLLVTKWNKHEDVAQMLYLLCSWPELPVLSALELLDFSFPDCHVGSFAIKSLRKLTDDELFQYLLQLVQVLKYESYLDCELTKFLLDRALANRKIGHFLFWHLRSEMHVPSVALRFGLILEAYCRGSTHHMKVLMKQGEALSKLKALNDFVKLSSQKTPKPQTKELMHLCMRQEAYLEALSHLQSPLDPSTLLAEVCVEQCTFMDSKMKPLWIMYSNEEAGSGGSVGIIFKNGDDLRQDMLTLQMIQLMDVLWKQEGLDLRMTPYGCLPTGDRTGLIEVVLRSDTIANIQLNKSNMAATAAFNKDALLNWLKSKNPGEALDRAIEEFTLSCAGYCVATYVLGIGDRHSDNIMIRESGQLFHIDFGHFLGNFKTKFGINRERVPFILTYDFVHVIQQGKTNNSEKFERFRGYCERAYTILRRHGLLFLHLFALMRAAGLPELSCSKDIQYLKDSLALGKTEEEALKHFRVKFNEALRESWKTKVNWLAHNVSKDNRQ
Sequence of PI3-kinase p110-alpha/p85-alpha (P27986 whole entry, canonical isoform): as the sequence (P27986 whole entry) above
Sequence of PI3-kinase p110-alpha/p85-alpha (P42336 whole entry, canonical isoform): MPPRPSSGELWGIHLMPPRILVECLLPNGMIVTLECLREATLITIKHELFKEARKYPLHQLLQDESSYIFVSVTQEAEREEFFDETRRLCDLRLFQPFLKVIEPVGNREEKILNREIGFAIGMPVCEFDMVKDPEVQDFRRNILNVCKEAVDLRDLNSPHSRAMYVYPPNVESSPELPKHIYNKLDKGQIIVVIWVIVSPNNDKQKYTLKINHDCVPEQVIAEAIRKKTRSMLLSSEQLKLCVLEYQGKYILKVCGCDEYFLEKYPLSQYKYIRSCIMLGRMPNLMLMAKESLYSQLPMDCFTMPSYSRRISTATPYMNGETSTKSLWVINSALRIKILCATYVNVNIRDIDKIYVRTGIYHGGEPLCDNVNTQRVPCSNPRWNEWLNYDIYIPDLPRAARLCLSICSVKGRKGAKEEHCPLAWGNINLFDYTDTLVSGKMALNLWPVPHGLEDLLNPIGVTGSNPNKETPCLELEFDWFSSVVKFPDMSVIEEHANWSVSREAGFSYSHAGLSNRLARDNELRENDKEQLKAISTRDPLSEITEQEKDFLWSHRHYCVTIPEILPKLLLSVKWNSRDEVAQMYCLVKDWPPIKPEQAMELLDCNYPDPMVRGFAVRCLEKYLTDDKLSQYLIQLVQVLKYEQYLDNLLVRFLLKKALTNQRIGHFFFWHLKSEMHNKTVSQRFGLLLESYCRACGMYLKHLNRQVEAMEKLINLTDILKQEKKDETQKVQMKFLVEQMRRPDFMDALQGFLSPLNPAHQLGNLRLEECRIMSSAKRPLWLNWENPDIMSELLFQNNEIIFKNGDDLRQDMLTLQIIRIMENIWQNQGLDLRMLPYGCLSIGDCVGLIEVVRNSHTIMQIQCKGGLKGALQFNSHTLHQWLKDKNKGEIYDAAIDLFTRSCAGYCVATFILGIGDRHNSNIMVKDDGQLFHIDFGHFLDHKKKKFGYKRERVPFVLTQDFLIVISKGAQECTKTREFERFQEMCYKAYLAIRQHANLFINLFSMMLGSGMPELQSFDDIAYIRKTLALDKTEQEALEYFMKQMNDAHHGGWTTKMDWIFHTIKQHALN
Sequence of PI3K p110 beta/p85 alpha (P27986 whole entry): as the sequence (P27986 whole entry) above
Sequence of PI3K p110 beta/p85 alpha (P42338 whole entry): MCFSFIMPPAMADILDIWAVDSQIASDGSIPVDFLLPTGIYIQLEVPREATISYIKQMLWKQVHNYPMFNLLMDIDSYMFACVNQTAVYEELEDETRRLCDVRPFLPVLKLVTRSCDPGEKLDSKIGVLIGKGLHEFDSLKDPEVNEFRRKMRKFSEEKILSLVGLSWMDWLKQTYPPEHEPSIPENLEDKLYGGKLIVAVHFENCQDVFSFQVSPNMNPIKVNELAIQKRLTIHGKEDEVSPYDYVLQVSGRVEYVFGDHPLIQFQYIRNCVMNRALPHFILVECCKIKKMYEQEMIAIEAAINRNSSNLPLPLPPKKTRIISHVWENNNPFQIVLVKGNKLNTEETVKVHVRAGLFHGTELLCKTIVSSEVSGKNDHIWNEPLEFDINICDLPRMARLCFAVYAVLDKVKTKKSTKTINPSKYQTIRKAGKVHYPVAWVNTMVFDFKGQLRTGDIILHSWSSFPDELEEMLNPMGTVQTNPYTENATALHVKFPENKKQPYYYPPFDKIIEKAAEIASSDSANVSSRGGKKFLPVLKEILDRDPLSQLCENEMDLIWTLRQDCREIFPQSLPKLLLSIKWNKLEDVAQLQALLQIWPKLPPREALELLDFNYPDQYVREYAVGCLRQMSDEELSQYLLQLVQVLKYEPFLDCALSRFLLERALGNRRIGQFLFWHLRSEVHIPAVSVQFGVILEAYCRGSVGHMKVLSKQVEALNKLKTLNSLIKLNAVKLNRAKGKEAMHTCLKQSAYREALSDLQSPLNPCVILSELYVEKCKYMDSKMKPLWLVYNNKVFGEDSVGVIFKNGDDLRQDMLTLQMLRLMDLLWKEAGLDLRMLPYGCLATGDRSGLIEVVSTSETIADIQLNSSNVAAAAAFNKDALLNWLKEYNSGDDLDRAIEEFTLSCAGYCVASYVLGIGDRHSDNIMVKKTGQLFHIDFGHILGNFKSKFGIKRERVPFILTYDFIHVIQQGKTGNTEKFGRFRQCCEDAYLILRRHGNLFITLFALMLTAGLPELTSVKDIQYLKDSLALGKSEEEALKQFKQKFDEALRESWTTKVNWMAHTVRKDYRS
Sequence of Phosphatidylinositol 4,5-bisphosphate 3-kinase catalytic subunit gamma isoform (P48736 whole entry, canonical isoform): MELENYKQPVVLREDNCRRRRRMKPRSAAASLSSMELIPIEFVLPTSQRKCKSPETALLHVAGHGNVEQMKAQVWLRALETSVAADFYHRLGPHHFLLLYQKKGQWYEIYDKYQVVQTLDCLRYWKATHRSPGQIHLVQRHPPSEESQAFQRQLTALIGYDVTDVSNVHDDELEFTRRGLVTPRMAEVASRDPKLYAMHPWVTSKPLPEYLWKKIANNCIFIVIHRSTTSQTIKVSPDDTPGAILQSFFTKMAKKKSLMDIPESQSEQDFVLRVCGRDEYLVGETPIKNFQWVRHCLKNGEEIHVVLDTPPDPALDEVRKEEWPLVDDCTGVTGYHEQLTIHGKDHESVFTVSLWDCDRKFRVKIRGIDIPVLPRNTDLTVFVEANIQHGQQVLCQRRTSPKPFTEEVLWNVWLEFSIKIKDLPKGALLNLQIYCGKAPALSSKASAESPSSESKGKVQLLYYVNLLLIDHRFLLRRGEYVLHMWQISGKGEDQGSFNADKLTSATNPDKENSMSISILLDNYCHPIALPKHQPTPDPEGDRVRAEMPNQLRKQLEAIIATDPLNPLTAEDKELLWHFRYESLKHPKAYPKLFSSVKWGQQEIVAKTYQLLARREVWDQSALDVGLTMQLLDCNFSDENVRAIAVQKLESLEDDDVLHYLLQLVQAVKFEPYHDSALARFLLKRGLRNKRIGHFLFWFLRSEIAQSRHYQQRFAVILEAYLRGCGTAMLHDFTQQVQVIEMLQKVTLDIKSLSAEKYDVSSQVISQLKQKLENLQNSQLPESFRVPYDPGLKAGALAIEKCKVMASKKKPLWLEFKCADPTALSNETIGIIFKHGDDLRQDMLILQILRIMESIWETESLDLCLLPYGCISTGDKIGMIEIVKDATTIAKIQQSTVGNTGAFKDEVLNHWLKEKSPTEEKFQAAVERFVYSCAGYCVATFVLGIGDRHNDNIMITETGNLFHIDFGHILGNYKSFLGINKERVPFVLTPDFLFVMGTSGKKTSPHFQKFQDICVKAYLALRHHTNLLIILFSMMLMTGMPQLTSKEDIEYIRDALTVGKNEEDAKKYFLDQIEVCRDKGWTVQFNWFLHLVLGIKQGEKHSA

Cc1ccn2nc([C@H](C)Nc3ncnc(N)c3C#N)n(-c3ccccc3)c(=O)c12
IC50 [1]: 2.3 µM
IC50 [2]: 0.065 µM
IC50 (PI3K p110 beta/p85 alpha): 0.12 µM
IC50 [3]: 0.001 µM

C[C@H](Nc1ncnc(N)c1C#N)c1nn2cccc2c(=O)n1-c1ccccc1
metabolised at 0.5 h, 5 µM [4]: 16%

Cc1ccn2nc([C@H](C)Nc3ncnc4[nH]cc(-c5cc(O)cc(F)c5)c34)n(-c3ccccc3)c(=O)c12
IC50 [1]: 0.009 µM
IC50 [2]: 0.0006 µM
IC50 (PI3K p110 beta/p85 alpha): 0.0023 µM
IC50 [3]: 0.0002 µM

Cc1ccn2nc([C@H](C)Nc3ncnc(N)c3-c3cnc(N)nc3)n(-c3ccccc3)c(=O)c12
metabolised at 0.5 h, 5 µM [5]: 27%
metabolised at 2 h, 5 µM [6]: 6%
IC50 [2]: 0.12 µM
IC50 (PI3K p110 beta/p85 alpha): 0.36 µM

Cc1ccn2nc([C@H](C)Nc3ncnc(N)c3-c3ccc4cc[nH]c4c3)n(-c3ccccc3)c(=O)c12
metabolised at 0.5 h, 5 µM [4]: 47%
IC50 [1]: 8.5 µM
metabolised at 0.5 h, 5 µM [5]: 50%
metabolised at 2 h, 5 µM [6]: 9.6%
IC50 [2]: 0.42 µM
IC50 (PI3K p110 beta/p85 alpha): 0.14 µM

Cc1ccn2nc([C@H](C)Nc3ncnc(N)c3Cc3cccc(O)c3)n(-c3ccccc3)c(=O)c12
IC50 [1]: 6.6 µM
IC50 (PI3K p110 beta/p85 alpha): 3 µM
IC50 [3]: 0.022 µM

Cc1ccn2nc([C@H](C)Nc3ncnc(N)c3C(=O)Nc3cccc(O)c3)n(-c3ccccc3)c(=O)c12
metabolised at 0.5 h, 5 µM [4]: 42%
IC50 [1]: 1.4 µM
metabolised at 0.5 h, 5 µM [5]: 60%
IC50 [2]: 0.01 µM
IC50 (PI3K p110 beta/p85 alpha): 0.039 µM
IC50 [3]: 0.0002 µM

Cc1ccn2nc([C@H](C)Nc3ncnc4[nH]cc(Cc5cccc(O)c5)c34)n(-c3ccccc3)c(=O)c12
metabolised at 0.5 h, 5 µM [4]: 72%
IC50 [1]: 2.9 µM
metabolised at 0.5 h, 5 µM [5]: 100%
IC50 [2]: 0.064 µM
IC50 (PI3K p110 beta/p85 alpha): 0.21 µM
IC50 [3]: 0.0014 µM

Cc1ccn2nc([C@H](C)Nc3ncnc(N)c3-c3cc(O)cc(C(F)(F)F)c3)n(-c3ccccc3)c(=O)c12
IC50 [1]: 0.31 µM
IC50 [2]: 0.0068 µM
IC50 (PI3K p110 beta/p85 alpha): 0.01 µM
IC50 [3]: 0.0002 µM

Cc1ccn2nc([C@H](C)Nc3ncnc4[nH]cc(-c5cn[nH]c5)c34)n(-c3ccccc3)c(=O)c12
metabolised at 0.5 h, 5 µM [4]: 21%
metabolised at 0.5 h, 5 µM [5]: 97%
IC50 (PI3K p110 beta/p85 alpha): 0.0043 µM
IC50 [3]: 0.0004 µM

Cc1ccn2nc([C@H](C)Nc3ncnc4[nH]cc(Sc5cccc(O)c5)c34)n(-c3ccccc3)c(=O)c12
metabolised at 0.5 h, 5 µM [4]: 64%
IC50 [1]: 0.77 µM
metabolised at 0.5 h, 5 µM [5]: 99%
metabolised at 2 h, 5 µM [6]: 84%
IC50 (PI3K p110 beta/p85 alpha): 0.17 µM
metabolised at 2 h, 5 µM [7]: 74%
IC50 [3]: 0.001 µM

Cc1ccn2nc([C@H](C)Nc3ncnc(N)c3-c3cc(O)cc(F)c3)n(-c3ccccc3)c(=O)c12
metabolised at 0.5 h, 5 µM [4]: 75%
IC50 [1]: 1.9 µM
metabolised at 0.5 h, 5 µM [5]: 84%
metabolised at 2 h, 5 µM [6]: 74%
IC50 [2]: 0.04 µM
IC50 (PI3K p110 beta/p85 alpha): 0.11 µM
metabolised at 2 h, 5 µM [7]: 26%
IC50 [3]: 0.0006 µM

Cc1ccn2nc([C@H](C)Nc3ncnc4[nH]cc(-c5cc(C(F)(F)F)ccc5O)c34)n(-c3ccccc3)c(=O)c12
metabolised at 0.5 h, 5 µM [4]: 21%
IC50 [1]: 0.25 µM
metabolised at 0.5 h, 5 µM [5]: 58%
IC50 [2]: 0.0033 µM
IC50 (PI3K p110 beta/p85 alpha): 0.0073 µM
IC50 [3]: 0.0003 µM

Cc1ccn2nc([C@H](C)Nc3ncnc4[nH]cc(-c5cccc6cc[nH]c56)c34)n(-c3ccccc3)c(=O)c12
IC50 (PI3K p110 beta/p85 alpha): 0.079 µM
IC50 [3]: 0.0013 µM

Cc1ccn2nc([C@H](C)Nc3ncnc(N)c3-c3ccc4oc(=O)[nH]c4c3)n(-c3ccccc3)c(=O)c12
IC50 [2]: 0.43 µM
IC50 (PI3K p110 beta/p85 alpha): 1.3 µM
IC50 [3]: 0.011 µM

Cc1ccn2nc([C@H](C)Nc3ncnc4[nH]cc(-c5cnn(C)c5)c34)n(-c3ccccc3)c(=O)c12
metabolised at 0.5 h, 5 µM [4]: 36%
IC50 [1]: 0.23 µM
metabolised at 0.5 h, 5 µM [5]: 91%
metabolised at 2 h, 5 µM [6]: 91%
IC50 [2]: 0.0036 µM
IC50 (PI3K p110 beta/p85 alpha): 0.022 µM
metabolised at 2 h, 5 µM [7]: 6%
IC50 [3]: 0.0002 µM

Cc1ccn2nc([C@H](C)Nc3ncnc(N)c3-c3cc(O)cc(Cl)c3)n(-c3ccccc3)c(=O)c12
metabolised at 0.5 h, 5 µM [4]: 54%
IC50 [1]: 0.56 µM
metabolised at 0.5 h, 5 µM [5]: 55%
metabolised at 2 h, 5 µM [6]: 97%
IC50 (PI3K p110 beta/p85 alpha): 0.057 µM
metabolised at 2 h, 5 µM [7]: 83%
IC50 [3]: 0.0002 µM

COc1cccc(-c2c[nH]c3ncnc(N[C@@H](C)c4nn5ccc(C)c5c(=O)n4-c4ccccc4)c23)c1O
metabolised at 0.5 h, 5 µM [4]: 58%
IC50 [1]: 0.76 µM
metabolised at 0.5 h, 5 µM [5]: 99%
metabolised at 2 h, 5 µM [6]: 90%
IC50 [2]: 0.081 µM
IC50 (PI3K p110 beta/p85 alpha): 0.014 µM
metabolised at 2 h, 5 µM [7]: 44%
IC50 [3]: 0.0002 µM

Cc1ccn2nc([C@H](C)Nc3ncnc(N)c3-c3ccc(O)cc3)n(-c3ccccc3)c(=O)c12
metabolised at 0.5 h, 5 µM [4]: 22%
IC50 [1]: 8.4 µM
metabolised at 0.5 h, 5 µM [5]: 84%
metabolised at 2 h, 5 µM [6]: 76%
IC50 [2]: 0.16 µM
IC50 (PI3K p110 beta/p85 alpha): 1.7 µM
metabolised at 2 h, 5 µM [7]: 21%
IC50 [3]: 0.022 µM

Cc1ccn2nc([C@H](C)Nc3ncnc4[nH]cc(-c5cc(O)cc(NS(C)(=O)=O)c5)c34)n(-c3ccccc3)c(=O)c12
metabolised at 0.5 h, 5 µM [4]: 16%
IC50 [1]: 0.022 µM
metabolised at 0.5 h, 5 µM [5]: 67%
metabolised at 2 h, 5 µM [6]: 94%
IC50 [2]: 0.0007 µM
IC50 (PI3K p110 beta/p85 alpha): 0.0025 µM
metabolised at 2 h, 5 µM [7]: 28%
IC50 [3]: 0.0002 µM

Cc1ccn2nc([C@H](C)Nc3ncnc(N)c3Sc3cccc(O)c3)n(-c3ccccc3)c(=O)c12
metabolised at 0.5 h, 5 µM [4]: 94%
IC50 [1]: 8.4 µM
metabolised at 0.5 h, 5 µM [5]: 100%
IC50 [2]: 0.045 µM
IC50 (PI3K p110 beta/p85 alpha): 0.95 µM
IC50 [3]: 0.0018 µM

Cc1ccn2nc([C@H](C)Nc3ncnc4[nH]cc(-c5cccc6[nH]ccc56)c34)n(-c3ccccc3)c(=O)c12
metabolised at 0.5 h, 5 µM [4]: 74%
IC50 [1]: 0.41 µM
metabolised at 0.5 h, 5 µM [5]: 92%
IC50 [2]: 0.017 µM
IC50 (PI3K p110 beta/p85 alpha): 0.012 µM
IC50 [3]: 0.0002 µM

Cc1ccn2nc([C@H](C)Nc3ncnc(N)c3-c3cccc(NS(C)(=O)=O)c3)n(-c3ccccc3)c(=O)c12
metabolised at 0.5 h, 5 µM [4]: 32%
IC50 [1]: 0.73 µM
metabolised at 0.5 h, 5 µM [5]: 97%
IC50 [2]: 0.0017 µM
IC50 (PI3K p110 beta/p85 alpha): 0.037 µM
IC50 [3]: 0.0003 µM

COc1cc(-c2c[nH]c3ncnc(N[C@@H](C)c4nn5ccc(C)c5c(=O)n4-c4ccccc4)c23)ccc1O
IC50 [1]: 0.0012 µM
IC50 [2]: 0.0003 µM
IC50 (PI3K p110 beta/p85 alpha): 0.0013 µM
IC50 [3]: 0.0002 µM

Cc1ccn2nc([C@H](C)Nc3ncnc4[nH]cc(-c5cccc(NS(C)(=O)=O)c5)c34)n(-c3ccccc3)c(=O)c12
metabolised at 0.5 h, 5 µM [4]: 23%
IC50 [1]: 0.19 µM
metabolised at 0.5 h, 5 µM [5]: 74%
IC50 [2]: 0.0031 µM
IC50 (PI3K p110 beta/p85 alpha): 0.029 µM
IC50 [3]: 0.0003 µM

Cc1ccn2nc([C@H](C)Nc3ncnc4[nH]cc(C(=O)Nc5cccc(O)c5)c34)n(-c3ccccc3)c(=O)c12
IC50 [1]: 1 µM
IC50 [2]: 0.013 µM
IC50 (PI3K p110 beta/p85 alpha): 0.23 µM
IC50 [3]: 0.002 µM

Cc1ccn2nc([C@H](C)Nc3ncnc4[nH]cc(-c5cccc(F)c5O)c34)n(-c3ccccc3)c(=O)c12
metabolised at 0.5 h, 5 µM [4]: 27%
IC50 [1]: 1 µM
metabolised at 0.5 h, 5 µM [5]: 41%
IC50 [2]: 0.012 µM
IC50 (PI3K p110 beta/p85 alpha): 0.052 µM
IC50 [3]: 0.0019 µM

Cc1ccn2nc([C@H](C)Nc3ncnc4[nH]cc(-c5ccccc5O)c34)n(-c3ccccc3)c(=O)c12
metabolised at 0.5 h, 5 µM [4]: 72%
metabolised at 0.5 h, 5 µM [5]: 99%
IC50 [3]: 0.0051 µM

Cc1ccn2nc([C@H](C)Nc3ncnc(N)c3-c3cc(O)cc(NS(C)(=O)=O)c3)n(-c3ccccc3)c(=O)c12
IC50 [2]: 0.015 µM

Cc1ccn2nc([C@H](C)Nc3ncnc4[nH]cc(-c5ccc(O)cc5)c34)n(-c3ccccc3)c(=O)c12
IC50 [1]: 0.11 µM
IC50 [2]: 0.0007 µM
IC50 (PI3K p110 beta/p85 alpha): 0.0041 µM
IC50 [3]: 0.0004 µM

C[C@@H]1C[C@H]2[C@@H]3C[C@H](F)C4=CC(=O)C=C[C@]4(C)[C@@]3(F)[C@@H](O)C[C@]2(C)[C@@]1(O)C(=O)SCF [FLUTICASONE]
inhibition in vivo at 0.3 mg/kg (Rattus norvegicus [8]): 89%
inhibition in vivo at 0.3 mg/kg (Rattus norvegicus [9]): 82%
